Numbers after ± are expanded uncertainties.
Conditions: Liquid

| SMILES | vapor or sublimation pressure (313.15 K) [kPa] | vapor or sublimation pressure (323.15 K) [kPa] | vapor or sublimation pressure (333.15 K) [kPa] | vapor or sublimation pressure (338.15 K) [kPa] |
| --- | --- | --- | --- | --- |
| CCC(C)(C)O [2-methylbutan-2-ol] | 5.69 ± 0.24 | 10.41 ± 0.32 | 17.87 ± 0.43 | 22.87 ± 0.51 |
| CCC(C)O (stereo not given) [butan-2-ol] | 5.83 ± 0.18 | 10.48 ± 0.24 | 18.2 ± 0.33 |  |
| CCCCCC [hexane] | 37.04 ± 0.55 | 53.91 ± 0.74 | 76.32 ± 1 | 89.92 ± 1.2 |
| CCCC(C)O (stereo not given) [pentan-2-ol] | 2.13 ± 0.14 | 4.16 ± 0.16 | 7.57 ± 0.2 | 9.99 ± 0.23 |
